Patent publication US12497405B2, “Bicyclic heterocycle compounds methods of use thereof for the treatment of herpes viruses” (Merck Sharp & Dohme LLC, priority 2019, dated 2025)
Where two headings read alike, the source gives them in different places.

Columns and labels:
Assay type in all cases: cell-based
CMV = test: Viral qPCR assay, CMV; conditions: infected cells, viral genome copies by qPCR normalized to PPIA, read-out: CMV Cell EC50
Experimental: (§1) MRC5 cells, Vero cells, and MeWo cells were obtained from ATCC, and were maintained at 37° C./5% CO2/90% relative humidity in Minimal Essential Medium with 10% fetal bovine serum, […] L-glutamine, 100 units/ml penicillin and 100 ug/ml streptomycin. Assay plates were prepared by dispensing compounds dissolved in DMSO into wells of 384 well collagen-coated plates using an ECHO acoustic dispenser. Each test compound was tested in a 10-point, serial 3-fold dilution. Controls included uninfected cells and infected cells treated only with DMSO. Assays were initiated by mixing selected cells, in suspension, with virus, and dispensing 50 μl/well infected cells to pre-plated compounds. Plates were incubated at 37° C./5% CO2/90% relative humidity for ˜72 hrs to permit genomic replication, and infected cells were lysed by the addition of an equal volume of lysis buffer (10 mM Tris-HCl, pH8, 50 mM KCl, 2 mM MgCl2, 0.45% NP-40, 0.45% Tween-20, and 100 µg/ml proteinase K). An aliquot of the lysate was then transferred to a 384-well PCR plate and incubated at 56° C. for 1 hour, and then at 95° C. for 10 minutes. Levels of the selected viral gene and of the cellular control, PPIA, were measured in separate 10 μl qPCR assays using TaqMan® Gene Expression Master Mix (Applied Biosystems), and an 7900HT Fast Real-Time PCR System with 384-Well Block Module. 7-point, serial 10-fold dilutions of a plasmid standard were run on each plate to generate a standard curve, and genome copies numbers were calculated by plotting experimental Ct onto linear regression of the standard curve. Viral genome copy numbers were normalized by cellular control copy number, and compound effects were normalized to the window defined by the controls. Calculated % effects were fit using a 4-parameter algorithm, and EC50 was reported.

HSV1 = test: Viral qPCR assay, HSV1; conditions: infected cells, viral genome copies by qPCR normalized to PPIA, read-out: HSV1 Cell EC50
Experimental: as §1

HSV2 = test: Viral qPCR assay, HSV2; conditions: infected cells, viral genome copies by qPCR normalized to PPIA, read-out: HSV2 Cell EC50
Experimental: as §1

SMILES | EC50 (CMV; ~72 hrs) | EC50 (HSV1; Human alphaherpesvirus 1, 72 h) | EC50 (HSV2; Human alphaherpesvirus 2, 72 h) | EC50 (HSV1; ~72 hrs) | EC50 (HSV2; ~72 hrs) | EC50 (CMV; Human betaherpesvirus 5, 72 h)
O=C1OC[C@@H]2C[C@@H](Oc3cc4c(=O)n(Cc5ccc(Cl)cc5)c(OC5CCC(O)CC5)nc4cc3-c3cnn(C(F)F)c3)CCN12 (single isomer, unassigned) [Example 141] | 205 nM | 258 nM | 184 nM |  |  | 
O=C1OC[C@@H]2C[C@@H](Oc3cc4c(=O)n(Cc5ccc(Cl)cc5)c(OC5CCC(O)CC5)nc4cc3-c3cnn(C(F)F)c3)CCN12 (single isomer, unassigned) [Example 143] | 95 nM |  |  | 213 nM | 181 nM | 
Cc1nc2cc(-c3cc4n(n3)C(C(F)(F)F)CN(C)C4)c(O[C@H]3CCN4C(=O)OC[C@@H]4C3)cc2c(=O)n1Cc1ccc(Cl)cc1 (single isomer, unassigned) [Example 151] |  | 233 nM | 176 nM |  |  | 178 nM
Cc1nc2cc(-c3cc4n(n3)C(C(F)(F)F)CN(C)C4)c(O[C@H]3CCN4C(=O)OC[C@@H]4C3)cc2c(=O)n1Cc1ccc(Cl)cc1 (single isomer, unassigned) [Example 152] | 159 nM |  |  | 231 nM | 226 nM | 
Cc1nc2cc(-c3cc4ccccn4n3)c(O[C@H]3CCN4C(=O)OC[C@@H]4C3)cc2c(=O)n1Cc1ccc(Cl)cc1 [Example 15] |  | 74 nM | 41 nM |  |  | 60 nM
Cc1nc2cc(-c3cn4ccnc4s3)c(O[C@H]3CCN4C(=O)OC[C@@H]4C3)cc2c(=O)n1Cc1ccc(Cl)cc1 [Example 16] |  | 42 nM | 18 nM |  |  | 33 nM
Cc1nc2nc(-c3ccn(C(F)F)n3)c(O[C@H]3CCN4C(=O)OC[C@@H]4C3)cc2c(=O)n1Cc1ccc(Cl)cc1 [Example 20] |  | 247 nM | 209 nM |  |  | 117 nM
O=C1OC[C@@H]2C[C@@H](Oc3cc4c(=O)n(Cc5ccc(Cl)cc5)cnc4nc3-c3cnco3)CCN12 [Example 37] |  | 19 nM | 11 nM |  |  | 20 nM
Cc1nc2cc(-c3ccc4ncoc4c3)c(O[C@H]3CCN4C(=O)OC[C@@H]4C3)cc2c(=O)n1Cc1ccc(Cl)cc1 [Example 89] |  | 436 nM | 273 nM |  |  | 375 nM
Cc1nc2cc(-c3cn4ccncc4n3)c(O[C@H]3CCN4C(=O)OC[C@@H]4C3)cc2c(=O)n1Cc1ccc(Cl)cc1 [Example 91] |  | 527 nM | 602 nM |  |  | 479 nM
Cc1nn(C(F)F)cc1-c1cc2nc(C)n(Cc3ccc(Cl)cc3)c(=O)c2cc1O[C@H]1CCN2C(=O)OC[C@@H]2C1 [Example 92] |  | 796 nM | 506 nM |  |  | 379 nM
COc1ncc(-c2cc3nc(C)n(Cc4ccc(Cl)cc4)c(=O)c3cc2O[C@H]2CCN3C(=O)OC[C@@H]3C2)c(C)n1 [Example 93] |  | 2590 nM | 3380 nM |  |  | 1430 nM
COc1ncncc1-c1cc2nc(C)n(Cc3ccc(Cl)cc3)c(=O)c2cc1O[C@H]1CCN2C(=O)OC[C@@H]2C1 [Example 94] |  | 2410 nM | 1880 nM |  |  | 1470 nM
Cc1nc2cc(-c3cnc4nccn4c3)c(O[C@H]3CCN4C(=O)OC[C@@H]4C3)cc2c(=O)n1Cc1ccc(Cl)cc1 [Example 96] |  | 2920 nM | 3280 nM |  |  | 2060 nM
Cc1nc2cc(-c3cc4cnccn4c3)c(O[C@H]3CCN4C(=O)OC[C@@H]4C3)cc2c(=O)n1Cc1ccc(Cl)cc1 [Example 99] |  | 118 nM | 77 nM |  |  | 272 nM
Cc1nc2cc(-c3cc4ncccn4n3)c(O[C@H]3CCN4C(=O)OC[C@@H]4C3)cc2c(=O)n1Cc1ccc(Cl)cc1 [Example 100] |  | 86 nM | 43 nM |  |  | 63 nM
Cc1nc2cc(-c3nc4cnccn4n3)c(O[C@H]3CCN4C(=O)OC[C@@H]4C3)cc2c(=O)n1Cc1ccc(Cl)cc1 [Example 101] |  | 223 nM | 88 nM |  |  | 449 nM
O=C1OC[C@@H]2C[C@@H](Oc3cc4c(=O)n(Cc5ccc(Cl)cc5)c(OCCO)nc4cc3-c3cnn(C(F)F)c3)CCN12 [Example 102] |  | 71 nM | 37 nM |  |  | 135 nM
Cc1nc2cc(-c3nc4ncccn4n3)c(O[C@H]3CCN4C(=O)OC[C@@H]4C3)cc2c(=O)n1Cc1ccc(Cl)cc1 [Example 103] |  | 55 nM | 55 nM |  |  | 83 nM
Cc1nc2cc(-c3cn4ccccc4n3)c(O[C@H]3CCN4C(=O)OC[C@@H]4C3)cc2c(=O)n1Cc1ccc(Cl)cc1 [Example 104] |  | 45 nM | 32 nM |  |  | 99 nM

SMILES | EC50 (CMV; ~72 hrs) | EC50 (HSV1; Human alphaherpesvirus 1, 72 h) | EC50 (HSV2; Human alphaherpesvirus 2, 72 h) | EC50 (HSV1; ~72 hrs) | EC50 (HSV2; ~72 hrs) | EC50 (CMV; Human betaherpesvirus 5, 72 h)
Cc1nc2cc(-c3nc4ccccn4n3)c(O[C@H]3CCN4C(=O)OC[C@@H]4C3)cc2c(=O)n1Cc1ccc(Cl)cc1 [Example 105] |  | 48 nM | 55 nM |  |  | 112 nM
N#Cc1nc2cc(-c3cnn(C(F)F)c3)c(O[C@H]3CCN4C(=O)OC[C@@H]4C3)cc2c(=O)n1Cc1ccc(Cl)cc1 [Example 106] |  | 102 nM | 73 nM |  |  | 143 nM
Cc1nc2cc(-c3cc4cncnn4c3)c(O[C@H]3CCN4C(=O)OC[C@@H]4C3)cc2c(=O)n1Cc1ccc(Cl)cc1 [Example 107] |  | 52 nM | 31 nM |  |  | 52 nM
Cc1nc2cc(-c3cc4n(n3)CCN(C3CCOCC3)C4)c(O[C@H]3CCN4C(=O)OC[C@@H]4C3)cc2c(=O)n1Cc1ccc(Cl)cc1 [Example 108] |  | 198 nM | 87 nM |  |  | 201 nM
Cc1nc2cc(-c3cnc(OC4CCOCC4)nc3)c(O[C@H]3CCN4C(=O)OC[C@@H]4C3)cc2c(=O)n1Cc1ccc(Cl)cc1 [Example 109] |  | 413 nM | 153 nM |  |  | 465 nM
Cc1ccc(-c2cc3nc(C)n(Cc4ccc(Cl)cc4)c(=O)c3cc2O[C@H]2CCN3C(=O)OC[C@@H]3C2)nn1 [Example 110] |  | 288 nM | 133 nM |  |  | 200 nM
Nc1nc2cc(-c3cnn(C(F)F)c3)c(O[C@H]3CCN4C(=O)OC[C@@H]4C3)cc2c(=O)n1Cc1ccc(Cl)cc1 [Example 111] |  | 101 nM | 60 nM |  |  | 85 nM
COc1ccc(-c2cc3nc(C)n(Cc4ccc(Cl)cc4)c(=O)c3cc2O[C@H]2CCN3C(=O)OC[C@@H]3C2)nc1 [Example 112] |  | 148 nM | 81 nM |  |  | 142 nM
COc1cnc(-c2cc3nc(C)n(Cc4ccc(Cl)cc4)c(=O)c3cc2O[C@H]2CCN3C(=O)OC[C@@H]3C2)cn1 [Example 113] |  | 2680 nM | 1690 nM |  |  | 2970 nM
Cc1nc2cc(-c3cnc(OC4CC4)nc3)c(O[C@H]3CCN4C(=O)OC[C@@H]4C3)cc2c(=O)n1Cc1ccc(Cl)cc1 [Example 114] |  | 323 nM | 124 nM |  |  | 348 nM
Cc1nc2cc(-c3cnc(C4CCOCC4)nc3)c(O[C@H]3CCN4C(=O)OC[C@@H]4C3)cc2c(=O)n1Cc1ccc(Cl)cc1 [Example 115] |  | 313 nM | 111 nM |  |  | 258 nM
Cc1nc2cc(-c3cn4cccnc4n3)c(O[C@H]3CCN4C(=O)OC[C@@H]4C3)cc2c(=O)n1Cc1ccc(Cl)cc1 [Example 116] |  | 106 nM | 62 nM |  |  | 127 nM
Cc1cnc(-c2cc3nc(C)n(Cc4ccc(Cl)cc4)c(=O)c3cc2O[C@H]2CCN3C(=O)OC[C@@H]3C2)nc1 [Example 117] |  | 652 nM | 455 nM |  |  | 304 nM
Cc1nc2cc(-c3cncnc3)c(O[C@H]3CCN4C(=O)OC[C@@H]4C3)cc2c(=O)n1Cc1ccc(Cl)cc1 [Example 118] |  | 244 nM | 180 nM |  |  | 135 nM
Cc1nc2cc(-c3ncccn3)c(O[C@H]3CCN4C(=O)OC[C@@H]4C3)cc2c(=O)n1Cc1ccc(Cl)cc1 [Example 119] |  | 933 nM | 921 nM |  |  | 397 nM
O=C1OC[C@@H]2C[C@@H](Oc3cc4c(=O)n(Cc5ccc(Cl)cc5)c(CCN5CCOCC5)nc4cc3-c3cnn(C(F)F)c3)CCN12 [Example 120] |  | 2410 nM | 1020 nM |  |  | 957 nM
O=C1OC[C@@H]2C[C@@H](Oc3cc4c(=O)n(Cc5ccc(Cl)cc5)c(CC5CCOCC5)nc4cc3-c3cnn(C(F)F)c3)CCN12 [Example 121] |  | 188 nM | 128 nM |  |  | 299 nM
Cc1nc2cc(-c3cnccn3)c(O[C@H]3CCN4C(=O)OC[C@@H]4C3)cc2c(=O)n1Cc1ccc(Cl)cc1 [Example 122] |  | 844 nM | 543 nM |  |  | 382 nM
Cc1nc2cc(-c3cnc(C(F)F)nc3)c(O[C@H]3CCN4C(=O)OC[C@@H]4C3)cc2c(=O)n1Cc1ccc(Cl)cc1 [Example 124] |  | 198 nM | 120 nM |  |  | 163 nM
